Reference: PubChem BioAssay AID296 (DTP/NCI, 2004)
Where “and” joins values, the source holds several entries; their conditions need not be identical. Identical values can stand only once. Results filed as inconclusive are left out.

Test system: MX-1 breast xenograft, nude mice, tumor weight T/C
Assay: NCI In Vivo Anticancer Drug Screen. Data for tumor model Human Mammary Carcinoma MX-1 Xenograft (intrarenal inoculation) in NU/NU Swiss (nude) mice
Conditions: endpoint: mean tumor weight change, higher = larger tumour
How it was run: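 Compound dosed to mice with transplantable tumor; vehicle group as control. Endpoint survival or tumour size, reported as T/C.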

[1] = dose: 300.0 mg/kg/injection, schedule: Q04DX003 (sc), vehicle: Klucel (hydroxypropylcellulose) (HPC)
[2] = dose: 600.0 mg/kg/injection, schedule: Q04DX003 (sc), vehicle: Klucel (hydroxypropylcellulose) (HPC)
[3] = dose: 1200.0 mg/kg/injection, schedule: Q04DX003 (sc), vehicle: Klucel (hydroxypropylcellulose) (HPC)
[4] = dose: 2400.0 mg/kg/injection, schedule: Q04DX003 (sc), vehicle: Klucel (hydroxypropylcellulose) (HPC)
[5] = dose: 600.0 mg/kg/injection, schedule: Q04DX003 (sc), vehicle: water
[6] = dose: 150.0 mg/kg/injection, schedule: Q04DX003 (sc), vehicle: saline with Tween-80
[7] = dose: 300.0 mg/kg/injection, schedule: Q04DX003 (sc), vehicle: saline with Tween-80
[8] = dose: 600.0 mg/kg/injection, schedule: Q04DX003 (sc), vehicle: saline with Tween-80
[9] = dose: 1200.0 mg/kg/injection, schedule: Q04DX003 (sc), vehicle: saline with Tween-80
[10] = dose: 30.0 mg/kg/injection, schedule: Q01DX010 (sc), vehicle: water
[11] = dose: 60.0 mg/kg/injection, schedule: Q01DX010 (sc), vehicle: water
[12] = dose: 150.0 mg/kg/injection, schedule: Q04DX003 (sc), vehicle: Klucel (hydroxypropylcellulose) (HPC)
[13] = dose: 100.0 mg/kg/injection, schedule: Q01DX010 (sc), vehicle: saline
[14] = dose: 75.0 mg/kg/injection, schedule: Q04DX003 (sc), vehicle: saline
[15] = dose: 150.0 mg/kg/injection, schedule: Q04DX003 (sc), vehicle: saline
[16] = dose: 300.0 mg/kg/injection, schedule: Q04DX003 (sc), vehicle: saline

C/C(=C\c1ccccc1)[N+](=O)[O-]
T/C (dose: 25.0 mg/kg/injection, schedule: Q01DX010 (sc), vehicle: Klucel (hydroxypropylcellulose) (HPC)): 38 % of control | T/C (dose: 50.0 mg/kg/injection, schedule: Q01DX010 (sc), vehicle: Klucel (hydroxypropylcellulose) (HPC)): 88 % of control | T/C (dose: 100.0 mg/kg/injection, schedule: Q01DX010 (sc), vehicle: Klucel (hydroxypropylcellulose) (HPC)): 45 % of control and 53 % of control | T/C (dose: 200.0 mg/kg/injection, schedule: Q01DX010 (sc), vehicle: Klucel (hydroxypropylcellulose) (HPC)): 55 % of control and 59 % of control

C=C1C(=O)C23[C@H](O)C1CC[C@H]2[C@]12COC3(O)[C@@H](O)[C@@H]1C(C)(C)CC[C@@H]2O
T/C (dose: 12.5 mg/kg/injection, schedule: Q04DX003 (sc), vehicle: Klucel (hydroxypropylcellulose) (HPC)): 52 % of control | T/C (dose: 25.0 mg/kg/injection, schedule: Q04DX003 (sc), vehicle: Klucel (hydroxypropylcellulose) (HPC)): 85 % of control

OCC1OC(n2cnc3c(NO)ncnc32)C(O)C1O (centres undefined)
T/C [1]: 65 % of control | T/C [2]: 70 % of control | T/C [3]: 100 % of control | T/C [4]: 82 % of control

CC(C)[C@](O)(C(=O)OCC1=CCN2CC[C@@H](O)[C@@H]12)[C@H](C)O
T/C (dose: 300.0 mg/kg/injection, schedule: Q04DX003 (sc), vehicle: water): 56 % of control | T/C [5]: 65 % of control | T/C (dose: 1200.0 mg/kg/injection, schedule: Q04DX003 (sc), vehicle: water): 53 % of control | T/C (dose: 2400.0 mg/kg/injection, schedule: Q04DX003 (sc), vehicle: water): 51 % of control

CNC(=O)n1c(N)nc(-c2ccccc2)c1-c1ccccc1
T/C [6]: 105 % of control | T/C [7]: 62 % of control | T/C [8]: 62 % of control | T/C [9]: 68 % of control

CNc1nc(N(C)C)nc(N(C)C)n1
T/C (dose: 12.5 mg/kg/injection, schedule: Q04DX003 (sc), vehicle: water): 59 % of control | T/C (dose: 25.0 mg/kg/injection, schedule: Q04DX003 (sc), vehicle: water): 60 % of control | T/C [10]: 24 % of control | T/C (dose: 50.0 mg/kg/injection, schedule: Q04DX003 (sc), vehicle: water): 34 % of control | T/C [11]: 3 % of control | T/C (dose: 100.0 mg/kg/injection, schedule: Q04DX003 (sc), vehicle: water): 10 % of control | T/C (dose: 120.0 mg/kg/injection, schedule: Q01DX010 (sc), vehicle: water): -63 % of control

C=Cc1cnc([N+](=O)[O-])n1C
T/C [12]: 72 % of control | T/C [1]: 78 % of control | T/C [2]: 54 % of control

Cc1cc(NCCCN(C)C)c2ccc3c(ccc4c(NCCCN(C)C)cc(C)nc43)c2n1
T/C (dose: 9.38 mg/kg/injection, schedule: Q04DX003 (sc), vehicle: saline with Tween-80): 77 % of control | T/C (dose: 18.75 mg/kg/injection, schedule: Q04DX003 (sc), vehicle: saline with Tween-80): 65 % of control

COc1cc(C)c2c(c1C=O)Oc1c(c(C)c(O)c3c1C(O)OC3=O)OC2=O (centres undefined)
T/C (dose: 6.25 mg/kg/injection, schedule: Q01DX010 (sc), vehicle: saline): 90 % of control | T/C (dose: 12.5 mg/kg/injection, schedule: Q01DX010 (sc), vehicle: saline): 62 % of control and 78 % of control | T/C (dose: 25.0 mg/kg/injection, schedule: Q01DX010 (sc), vehicle: saline): 96 % of control and 118 % of control | T/C (dose: 50.0 mg/kg/injection, schedule: Q01DX010 (sc), vehicle: saline): 67 % of control and 88 % of control | T/C [13]: 98 % of control

CC1(C)CC23C4COC(=O)C2CCC1C3CC4=O (centres undefined)
T/C (dose: 300.0 mg/kg/injection, schedule: Q04DX003 (sc), vehicle: DMSO): 108 % of control | T/C (dose: 600.0 mg/kg/injection, schedule: Q04DX003 (sc), vehicle: DMSO): 82 % of control | T/C (dose: 1200.0 mg/kg/injection, schedule: Q04DX003 (sc), vehicle: DMSO): 104 % of control | T/C (dose: 2400.0 mg/kg/injection, schedule: Q04DX003 (sc), vehicle: DMSO): 74 % of control

CC1(O)C=CC(=O)C=C1
T/C (dose: 25.0 mg/kg/injection, schedule: Q04DX003 (ip), vehicle: water): 109 % of control | T/C (dose: 50.0 mg/kg/injection, schedule: Q04DX003 (ip), vehicle: water): 89 % of control

CCOC(=O)CNC(=O)Sc1ccc(C(C)(C)C)cc1
T/C [1]: 123 % of control | T/C [2]: 88 % of control | T/C [3]: 81 % of control | T/C [4]: 77 % of control

Oc1cc2ccccc2c(-c2c(O)c(O)cc3ccccc23)c1O
T/C [6]: 162 % of control | T/C [7]: 151 % of control | T/C [9]: 96 % of control

O=C1CN(Cc2ccc3c(c2)OCO3)NO1
T/C [6]: 64 % of control | T/C [7]: 42 % of control | T/C [8]: 39 % of control

Nc1ccn(C2OC(CO)C(O)C2O)c(=O)n1 (centres undefined)
T/C (dose: 7.5 mg/kg/injection, schedule: Q01DX010 (sc), vehicle: water): 53 % of control | T/C (dose: 7.81 mg/kg/injection, schedule: Q01DX010 (sc), vehicle: water): 62 % of control | T/C (dose: 15.0 mg/kg/injection, schedule: Q01DX010 (sc), vehicle: water): 27 % of control | T/C (dose: 15.63 mg/kg/injection, schedule: Q01DX010 (sc), vehicle: water): 28 % of control and 30 % of control | T/C [10]: 18 % of control | T/C (dose: 31.25 mg/kg/injection, schedule: Q01DX010 (sc), vehicle: water): 9 % of control and 12 % of control | T/C [11]: 9 % of control | T/C [5]: 41 % of control

O=C(O)C(O)C(O)C1[O][Sb][O]C1C(=O)O (centres undefined)
T/C [14]: 91 % of control | T/C [15]: 99 % of control

OCCOCC(F)(F)F
T/C [16]: 82 % of control | T/C (dose: 1200.0 mg/kg/injection, schedule: Q04DX003 (sc), vehicle: saline): 86 % of control | T/C (dose: 2400.0 mg/kg/injection, schedule: Q04DX003 (sc), vehicle: saline): 49 % of control

CCOc1cc2c(cc1C(C)c1ccc(OC)cc1)OCO2 (centres undefined)
T/C (dose: 150.0 mg/kg/injection, schedule: Q04DX003 (sc), vehicle: distilled water + alcohol): 43 % of control | T/C (dose: 300.0 mg/kg/injection, schedule: Q04DX003 (sc), vehicle: distilled water + alcohol): 31 % of control | T/C (dose: 600.0 mg/kg/injection, schedule: Q04DX003 (sc), vehicle: distilled water + alcohol): 19 % of control | T/C (dose: 1200.0 mg/kg/injection, schedule: Q04DX003 (sc), vehicle: distilled water + alcohol): 52 % of control

O=[n+]1c2ccccc2n([O-])c2ccccc21.[Cl][Ni][Cl]
T/C (dose: 75.0 mg/kg/injection, schedule: Q04DX003 (sc), vehicle: saline with Tween-80): 90 % of control | T/C [6]: 53 % of control

CN(C)CC(Cl)CCl (centres undefined)
T/C [14]: 50 % of control | T/C [15]: 85 % of control | T/C [16]: 28 % of control

Cc1ccc(NN=O)nc1
T/C (dose: 18.7 mg/kg/injection, schedule: Q04DX003 (ip), vehicle: water): 16 % of control | T/C (dose: 37.5 mg/kg/injection, schedule: Q04DX003 (ip), vehicle: water): 8 % of control

NCCc1ccc(O)c(O)c1
T/C [13]: 77 % of control | T/C (dose: 200.0 mg/kg/injection, schedule: Q01DX010 (sc), vehicle: saline): 62 % of control | T/C (dose: 400.0 mg/kg/injection, schedule: Q01DX010 (sc), vehicle: saline): 80 % of control | T/C (dose: 800.0 mg/kg/injection, schedule: Q01DX010 (sc), vehicle: saline): 61 % of control

CCC/C=C/C=C/C(=O)OC1/C(=C/C(=O)OC)CC2CC(C(C)O)OC(=O)CC(O)CC3CC(OC(C)=O)C(C)(C)C(O)(CC4C/C(=C/C(=O)OC)CC(/C=C/C(C)(C)C1(O)O2)O4)O3 (centres undefined)
T/C (dose: 0.25 mg/kg/injection, schedule: Q04DX003 (sc), vehicle: saline + alcohol): 103 % of control | T/C (dose: 0.5 mg/kg/injection, schedule: Q04DX003 (sc), vehicle: saline + alcohol): 111 % of control | T/C (dose: 1.0 mg/kg/injection, schedule: Q04DX003 (sc), vehicle: saline + alcohol): 70 % of control | T/C (dose: 2.0 mg/kg/injection, schedule: Q04DX003 (sc), vehicle: saline + alcohol): 60 % of control

C[C@@H]1C[C@@H]([C@H](O)CC2CC(=O)NC(=O)C2)C(=O)[C@@H](C)C1
T/C (dose: 37.5 mg/kg/injection, schedule: Q04DX003 (sc), vehicle: saline): 105 % of control | T/C [14]: 69 % of control | T/C [15]: 97 % of control

CCCCCC[Se][Se]CCCCCC
T/C (dose: 75.0 mg/kg/injection, schedule: Q04DX003 (sc), vehicle: Klucel (hydroxypropylcellulose) (HPC)): 98 % of control | T/C [12]: 80 % of control | T/C [1]: 102 % of control and 114 % of control
